Read-outs that look alike come from different tables or passages of the source.
How the values were obtained:
P-388 = assay: Inhibition of cell growth by counting cells, P-388; format: cell-based, mouse; conditions: Mus musculus, P388, 72 h, read-out: IC50 (molar) P-388
Procedure: (§1) 1°.—Inhibition of Cell Growth by Counting Cells.
(§2) This form of the assay employs 24 well multidishes of 16 mm diameter (Bergeron, 1984; Schroeder, 1981). The tumor cell lines employed are: P-388 (ATCC CCL 46), suspension culture of a lymphoid neoplasm from a DBA/2 mouse; A-549 (ATCC CCL 185), monolayer culture of a human lung carcinoma; HT-29 (ATCC HTB-38), monolayer culture of a human colon carcinoma; MEL-28 (ATCC HTB-72), monolayer culture of a human melanoma and DU-145 (ATCC HTB-81), monolayer culture of a human prostate carcinoma.
(§3) Cells were maintained, in logarithmic phase of growth in Eagle's Minimum Essential Medium, with Earle's Balanced Salts, with non-essential amino acids, with 2.0 mM L-Glutamine, without sodium bicarbonate (EMEM/neaa), supplemented with 10% Fetal Calf Serum (FCS), 10^−2 M. sodium bicarbonate and 0.1 U/l penicillin G+0.1 g/l streptomycin sulfate. For the experiments, cells are harvested from subconfluent cultures using trypsin and resuspended in fresh medium before plating.
(§4) P-388 cells were seeded into 16 mm diameter wells at 1×10^4 cells per well in 1 ml aliquots of EMEM 5% FCS containing different concentrations of the sample to be tested. A separate set of cultures without drug was seeded as control of growth, to ensure that cells remained in exponential phase of growth. All determinations are carrying out in duplicate.
(§5) For quantifying the activity, after the incubation time, cells are trypsinized and counted in a Coulter Counter ZM. All counts (net cells per well), represent the average of duplicate wells. % G, percent of growth relative to cultures without drug. The results of these assays are used to generate dose-response curves from which more precise IC50 values are determined (sample concentration which produces 50% cell growth inhibition).
(§6) Obtained results may predict the usefulness of a certain drug as a potential cancer treatment. For this technique, compounds which show IC50 values smaller than 1 μg/ml are selected to continue with further studies. IC50's data allow to predict that not only could a drug be cystostatic, but also it could have a potential in terms of tumor reduction.

MEL-28 = assay: Inhibition of cell growth by counting cells, MEL-28; format: cell-based, human; conditions: Homo sapiens, SK-MEL-28, 72 h, read-out: IC50 (molar) MEL-28
Procedure: as §1, §2, §3
as §4, with “A-549, HT-29, MEL-28 and DU-145” for “P-388”, “duplicate. After three days of incubation at 37° C., 5% CO2 in a 98% humid atmosphere cells were stained with 0.1% crystal violet. An approximately IC50 was determined by comparing the growth in wells with drug to the growth in wells control.” for “duplicate.”
as §5, §6

HT-29 = assay: Inhibition of cell growth by counting cells, HT-29; format: cell-based, human; conditions: Homo sapiens, HT-29, 72 h, read-out: IC50 (molar) HT-29
Procedure: as §1, §2, §3
as §4, with “A-549, HT-29, MEL-28 and DU-145” for “P-388”, “duplicate. After three days of incubation at 37° C., 5% CO2 in a 98% humid atmosphere cells were stained with 0.1% crystal violet. An approximately IC50 was determined by comparing the growth in wells with drug to the growth in wells control.” for “duplicate.”
as §5, §6

A-549 = assay: Inhibition of cell growth by counting cells, A-549; format: cell-based, human; conditions: Homo sapiens, A549, 72 h, read-out: IC50 (molar) A-549
Procedure: as §1, §2, §3
as §4, with “A-549, HT-29, MEL-28 and DU-145” for “P-388”, “duplicate. After three days of incubation at 37° C., 5% CO2 in a 98% humid atmosphere cells were stained with 0.1% crystal violet. An approximately IC50 was determined by comparing the growth in wells with drug to the growth in wells control.” for “duplicate.”
as §5, §6

Row | SMILES | IC50 (P-388; three days of incubation) [nM] | IC50 (MEL-28; three days of incubation) [nM] | IC50 (HT-29; three days of incubation) [nM] | IC50 (A-549; three days of incubation) [nM] | IC50 (P-388) [nM] | IC50 (MEL-28) [nM] | IC50 (HT-29) [nM] | IC50 (A-549) [nM]
1 | COc1cc2c(cc1OC(C)=O)CCN[C@]21CS[C@@H]2c3c(OC(C)=O)c(C)c4c(c3[C@H](COC1=O)N1C2[C@H]2c3c(cc(C)c(OC)c3O)C[C@@H]([C@@H]1C#N)N2C)OCO4 (stereo partly drawn) [Compound 2] | 0.148 | 0.148 | 0.148 | 0.148 | – | – | – | –
2 | COc1cc2c(cc1OC(C)=O)CCN[C@]21CS[C@@H]2c3c(OC(C)=O)c(C)c4c(c3[C@H](COC1=O)N1C2[C@H]2c3c(cc(C)c(OC)c3OC(C)=O)C[C@@H]([C@@H]1C#N)N2C)OCO4 (stereo partly drawn) [Compound 6] | 1.41 | 2.93 | 2.93 | 2.93 | – | – | – | –
3 | C=CCOC(=O)Oc1cc2c(cc1OC)[C@@]1(CS[C@@H]3c4c(OC(C)=O)c(C)c5c(c4[C@H](COC1=O)N1C3[C@H]3c4c(cc(C)c(OC)c4O)C[C@@H]([C@@H]1C#N)N3C)OCO5)NCC2 (stereo partly drawn) [Compound 25] | 0.141 | 0.141 | 0.141 | 0.141 | – | – | – | –
4 | C=CCOC(=O)Oc1cc2c(cc1OC)[C@@]1(CS[C@@H]3c4c(OC(C)=O)c(C)c5c(c4[C@H](COC1=O)N1C3[C@H]3c4c(cc(C)c(OC)c4OC(=O)OCC=C)C[C@@H]([C@@H]1C#N)N3C)OCO5)NCC2 (stereo partly drawn) [Compound 26] | 5.33 | 5.33 | 5.33 | 5.33 | – | – | – | –
5 | CCOc1cc2c(cc1OC)[C@@]1(CS[C@@H]3c4c(OC(C)=O)c(C)c5c(c4[C@H](COC1=O)N1C3[C@H]3c4c(cc(C)c(OC)c4O)C[C@@H]([C@@H]1C#N)N3C)OCO5)NCC2 (stereo partly drawn) [Compound 37] | 0.125 | 0.125 | 0.125 | 0.125 | – | – | – | –
6 | CCCOc1cc2c(cc1OC)[C@@]1(CS[C@@H]3c4c(OC(C)=O)c(C)c5c(c4[C@H](COC1=O)N1C3[C@H]3c4c(cc(C)c(OC)c4O)C[C@@H]([C@@H]1C#N)N3C)OCO5)NCC2 (stereo partly drawn) [Compound 39] | 0.616 | 0.616 | 0.616 | 0.616 | – | – | – | –
7 | COc1cc2c(cc1O)CCN[C@]21CS[C@@H]2c3c(OC(C)=O)c(C)c4c(c3[C@H](COC1=O)N1C2[C@H]2c3c(cc(C)c(OC)c3OC(C)=O)C[C@@H]([C@@H]1C#N)N2C)OCO4 (stereo partly drawn) [Compound 51] | 0.616 | 1.23 | 1.23 | 1.23 | – | – | – | –
8 | COc1cc2c(cc1OP(=O)(OCc1ccccc1)OCc1ccccc1)CCN[C@]21CS[C@@H]2c3c(OC(C)=O)c(C)c4c(c3[C@H](COC1=O)N1C2[C@H]2c3c(cc(C)c(OC)c3O)C[C@@H]([C@@H]1C#N)N2C)OCO4 (stereo partly drawn) [Compound 53] | – | – | – | – | 4.85 | 9.71 | 9.71 | 9.71
9 | COc1cc2c(cc1O)CCN(C)[C@]21CS[C@@H]2c3c(OC(C)=O)c(C)c4c(c3[C@H](COC1=O)N1C2[C@H]2c3c(cc(C)c(OC)c3O)C[C@@H]([C@@H]1C#N)N2C)OCO4 (stereo partly drawn) [Compound 54] | 0.128 | 0.128 | 0.128 | 0.128 | – | – | – | –
10 | CCCN1CCc2cc(O)c(OC)cc2[C@@]12CS[C@@H]1c3c(OC(C)=O)c(C)c4c(c3[C@H](COC2=O)N2C1[C@H]1c3c(cc(C)c(OC)c3O)C[C@@H]([C@@H]2C#N)N1C)OCO4 (stereo partly drawn) [Compound 56] | 0.123 | 0.123 | 0.123 | 0.123 | – | – | – | –
11 | COc1cc2c(cc1OC(C)=O)CCN[C@]21CS[C@@H]2c3c(OC(C)=O)c(C)c4c(c3[C@H](COC1=O)N1C2[C@H]2c3c(cc(C)c(OC)c3OC(C)=O)C[C@@H]([C@@H]1O)N2C)OCO4 (stereo partly drawn) [Compound 80] | 2.96 | 5.92 | 5.92 | 5.92 | – | – | – | –
12 | COc1cc2c(cc1O)CCN[C@]21CS[C@@H]2c3c(OC(C)=O)c(C)c4c(c3[C@H](COC1=O)N1C2[C@H]2c3c(cc(C)c(OC)c3OC(C)=O)C[C@@H]([C@@H]1O)N2C)OCO4 (stereo partly drawn) [Compound 96] | 1.25 | 1.25 | 1.25 | 1.25 | – | – | – | –
